Experimental findings from US8637677B2, “Organic dicarboxylic acids, salts and preparation method thereof” (Southeast University, priority 2009, dated 2014) are described below.

Structures are written as SMILES.

Assay [1] concerns in vitro eye lens of rabbits. Description: resisting oxidative damage to in vitro eye lens of rabbits induced by H2O2 (lens opacification grading). Format: cell-based. As to conditions: rabbit lens. From the text: (§1) Some typical compounds are selected for the research on the capability of in vitro resisting oxidative damage to crystalline lens induced by H2O2. The experiments are illustrated as follows:
(§2) Kill rats and rabbits, take out their eyeballs and rinse with saline containing 500 u/mL penicillin, split the eyeball from the posterior to remove eyeball wall and vitreous body, strip off the suspensory ligament, take out the crystalline lens and wash with PBS solution containing 500 u/mL penicillin and 0.5 mg/mL streptomycin for 5 min Before experiment, check with anatomical lens to confirm that there is no opacification or other abnormal condition in the crystalline lens, then place the crystalline lens in the sterilized 12-well plate containing 2 mL DMEM/high glucose (a product from Beijing Thermo Fisher Scientific Biochemical Product Co., Ltd.) sterile culture solution (which contains 100 u/mL penicillin and 0.1 mg/mL streptomycin), add different compounds for screening and pre-culture in a incubator with temperature of 37° C., humidity of 95% and 5% CO2 for 1 h, subsequently add 2 mL DEME culture solution containing H2O2 and FeCl3 (namely, total 4 mL culture solution in each well) (the total concentration of H2O2 in each well is 2% for rabbits, and 5% for rats, and the concentrations of FeCl3 are all 0.02%), culture under the same conditions for 24 hours. The experiments are divided into several groups as below and carried out in batches, with each batch provided with negative control group and model group.
(§3) A. Negative control group: DMEM culture solution without H2O2.
(§4) B. Model group (oxidative damage group): DMEM culture solution containing H2O2 and FeCl3.
(§5) C. Vitamin C group: besides the ingredients of the model group, further containing vitamin C (the final concentration is 1 mmol/L).
(§6) D. Bendazac lysine (BDL) group (BDL is provided by Zhejiang Shapuaisi Pharmaceutical Co. Ltd., and its purity is more than 98.5%): besides the ingredients of model group, further containing BDL (the final concentration is 0.5 mmol/L).
(§7) E. Sample group: besides the ingredients of model group, further containing sample (the final concentration is 0.5 mmol/L).
(§8) Evaluation criteria: according to large amount of experiments on the model group, the ratio between the percentage of different degrees of lens opacification in the groups and the percentage of different degrees of lens opacification in the model group is utilized as the definition, wherein, for slight improvement (√), the percentage of ++ (degrees II, III) should be lower than 67%, and the percentage of + (degree I) should be higher than 33%; for moderate improvement (√√), the percentage of ++(degrees II, III) further decreases; and the percentage of 0 (−) appears; for significant improvement (√√√), the percentage of ++ (degrees II, III) and + (degree I) disappears, and the lens are almost transparent.

Assay [2] deals with in vitro eye lens of rats. In words: resisting oxidative damage to in vitro eye lens of rats induced by H2O2 (lens opacification grading). Format: cell-based. As to conditions: rat lens.
Excerpt: as §1, §2, §3, §4, §5, §6, §7
as §8, with “lens turbidity” for “lens opacification”, “than 72%,” for “than 67%,”, “than 20%;” for “than 33%;”, “improvement (√√)” for “improvement (√√),”, “and +(degree” for “and + (degree”

The mark [3] stands for this setting: 2% H2O2 + 0.02% FeCl3, 24 h culture, sample and BDL 0.5 mmol/L, vitamin C 1 mmol/L.
Where [4] appears, read: 5% H2O2 + 0.02% FeCl3, 24 h culture, sample and BDL 0.5 mmol/L, vitamin C 1 mmol/L.

On to `O=C([O-])C(Oc1nn(Cc2cccc(F)c2)c2ccccc12)C(=O)[O-].[Na+].[Na+]` [Y10, 2-[1-(3-fluoro-benzyl)-1H-indazole-3-oxyl) malonate disodium], for which, in assay [1] (2% H2O2 + 0.02% FeCl3, 24 h culture, sample and BDL 0.5 mmol/L), the “Comments (improvement versus model group)” value is recorded as “✓”. In addition, in assay [1] (setting [3]), the “Observation Results + (number of lenses with mild opacity, degree I)” value stood at 4; the “Observation Results ++ (number of lenses with moderate opacity, degree II)” value worked out at 1; the “Percentages for different degrees % + Degree (I)” value is 80%; the “Percentages for different degrees % >++ Degrees(I, II)” value was 20%. In assay [1] (sample 0.5 mmol/L, table 1), the “inhibitory effects on oxidative damage to in vitro eye lens of rabbits induced by H2O2” value was “showing inhibitory effects”. Moreover, the “Comments (improvement versus model group)” value in assay [2] (5% H2O2 + 0.02% FeCl3, 24 h culture, sample and BDL 0.5 mmol/L) is “✓”. In assay [2] (setting [4]), the “Observation Results + (number of lenses with mild opacity, degree I)” value was found to be 47; the “Observation Results ++ (number of lenses with moderate opacity, degree II)” value stood at 28; the “Observation Results +++ (number of lenses totally opacified, degree III)” value was found to be 3; the “Percentages % + Degree (I)” value is 60%. For the same molecule, the “Percentages % >++ Degrees (II, III)” value in assay [2] (setting [4]) came to 40%. The “inhibitory effects on oxidative damage to in vitro eye lens of rats induced by H2O2” value in assay [2] (sample 0.5 mmol/L, summary of table 2) is given as “not significant”.
